Results published in the supplement of paper PMC10307832.

What was measured:
Assay in all cases: relative viability (nuclei count vs DMSO), 5 days (fraction); higher = more cells survive
CAP-232 + Palbociclib = compound: C[C@H]([C@@H](C(=O)N)NC(=O)[C@@H]1CSSC[C@@H](C(=O)N[C@H](C(=O)N[C@@H](C(=O)N[C@H](C(=O)N1)CCCCN)CC2=CNC3=CC=CC=C32)CC4=CC=C(C=C4)O)NC(=O)[C@@H](CC5=CC=CC=C5)N)O [CAP-232] + CC(=O)c1c(C)c2cnc(Nc3ccc(N4CCNCC4)cn3)nc2n(C2CCCC2)c1=O [Palbociclib] (partner 0.5 µM)
Summary of the method: (§1)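 Relative viability equals treated-well nuclei counts divided by vehicle-well nuclei counts. Counts came from 4× images of lung cancer cell lines grown in 1536-well plates for 5 days after pin-tool dosing on the day after seeding. Dosing used one drug alone or a fixed anchor-drug dose plus five library-drug doses (not always all listed) in √10 steps, and values are medians of duplicate plates.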

CAP-232 + Bortezomib = compound: C[C@H]([C@@H](C(=O)N)NC(=O)[C@@H]1CSSC[C@@H](C(=O)N[C@H](C(=O)N[C@@H](C(=O)N[C@H](C(=O)N1)CCCCN)CC2=CNC3=CC=CC=C32)CC4=CC=C(C=C4)O)NC(=O)[C@@H](CC5=CC=CC=C5)N)O [CAP-232] + CC(C)C[C@H](NC(=O)[C@H](Cc1ccccc1)NC(=O)c1cnccn1)B(O)O [Bortezomib] (partner 0.002 µM)
Summary of the method: as §1

CAP-232 + Lapatinib = compound: C[C@H]([C@@H](C(=O)N)NC(=O)[C@@H]1CSSC[C@@H](C(=O)N[C@H](C(=O)N[C@@H](C(=O)N[C@H](C(=O)N1)CCCCN)CC2=CNC3=CC=CC=C32)CC4=CC=C(C=C4)O)NC(=O)[C@@H](CC5=CC=CC=C5)N)O [CAP-232] + CS(=O)(=O)CCNCc1ccc(-c2ccc3ncnc(Nc4ccc(OCc5cccc(F)c5)c(Cl)c4)c3c2)o1 [Lapatinib] (partner 2 µM)
Summary of the method: as §1

CAP-232 + Pictilisib = compound: C[C@H]([C@@H](C(=O)N)NC(=O)[C@@H]1CSSC[C@@H](C(=O)N[C@H](C(=O)N[C@@H](C(=O)N[C@H](C(=O)N1)CCCCN)CC2=CNC3=CC=CC=C32)CC4=CC=C(C=C4)O)NC(=O)[C@@H](CC5=CC=CC=C5)N)O [CAP-232] + CS(=O)(=O)N1CCN(Cc2cc3nc(-c4cccc5[nH]ncc45)nc(N4CCOCC4)c3s2)CC1 [Pictilisib] (partner 1 µM)
Summary of the method: as §1

CAP-232 + Pemetrexed = compound: C[C@H]([C@@H](C(=O)N)NC(=O)[C@@H]1CSSC[C@@H](C(=O)N[C@H](C(=O)N[C@@H](C(=O)N[C@H](C(=O)N1)CCCCN)CC2=CNC3=CC=CC=C32)CC4=CC=C(C=C4)O)NC(=O)[C@@H](CC5=CC=CC=C5)N)O [CAP-232] + Nc1nc2[nH]cc(CCc3ccc(C(=O)N[C@@H](CCC(=O)O)C(=O)O)cc3)c2c(=O)[nH]1 [Pemetrexed] (partner 0.2 µM)
Summary of the method: as §1

Cell Line	relative viability (CAP-232 + Palbociclib; first compound 0.4 µM)	relative viability (CAP-232 + Palbociclib; first compound 1.265 µM)	relative viability (CAP-232 + Palbociclib; first compound 4 µM)	relative viability (CAP-232 + Palbociclib; first compound 12.65 µM)	relative viability (CAP-232 + Bortezomib; first compound 0.4 µM)	relative viability (CAP-232 + Bortezomib; first compound 1.265 µM)	relative viability (CAP-232 + Bortezomib; first compound 4 µM)	relative viability (CAP-232 + Bortezomib; first compound 12.65 µM)	relative viability (CAP-232 + Lapatinib; first compound 0.4 µM)	relative viability (CAP-232 + Lapatinib; first compound 1.265 µM)	relative viability (CAP-232 + Lapatinib; first compound 4 µM)	relative viability (CAP-232 + Lapatinib; first compound 12.65 µM)	relative viability (CAP-232 + Pictilisib; first compound 0.4 µM)	relative viability (CAP-232 + Pictilisib; first compound 1.265 µM)	relative viability (CAP-232 + Pictilisib; first compound 4 µM)	relative viability (CAP-232 + Pictilisib; first compound 12.65 µM)	relative viability (CAP-232 + Pemetrexed; first compound 0.4 µM)	relative viability (CAP-232 + Pemetrexed; first compound 1.265 µM)	relative viability (CAP-232 + Pemetrexed; first compound 4 µM)	relative viability (CAP-232 + Pemetrexed; first compound 12.65 µM)
A-427	0.528	0.554	0.508	0.467	1.21	0.972	0.993	0.964	1.09	1.04	1.17	1.09	0.508	0.654	0.842	0.853	1.22	0.923	0.974	0.924
BEN	0.516	0.46	0.456	0.448	0.819	0.667	0.959	0.745	0.776	0.661	0.583	0.575	0.569	0.55	0.601	0.498	0.888	0.613	0.923	0.752
CAL-12T	0.422	0.552	0.376	0.179	1.21	0.939	0.91	0.477	0.528	0.612	0.644	0.736	0.383	0.381	0.435	0.322	0.929	1.26	1.16	1.1
COR-L23	0.338	0.29	0.304	0.255	0.959	1.04	1.15	0.732	1.3	0.961	1.08	0.845	0.653	0.734	0.784	0.579	0.203	0.199	0.196	0.163
COR-L 105	0.395	0.401	0.384	0.387	0.913	0.742	0.657	0.567	0.333	0.376	0.354	0.33	0.346	0.43	0.37	0.31	1.44	0.964	1.18	0.783
EKVX	0.387	0.339	0.262	0.262	1.15	0.931	0.925	0.917	0.211	0.203	0.191	0.171	0.395	0.458	0.421	0.372	0.392	0.375	0.413	0.33
EMC-BAC-2	0.507	0.512	0.491	0.427	1.13	1.11	1.14	1.12	0.951	0.914	0.928	0.917	0.511	0.51	0.534	0.48	0.44	0.412	0.422	0.442
EPLC-272H	0.342	0.292	0.297	0.296	0.992	0.878	0.892	0.87	1.25	0.86	1.04	0.971	0.284	0.281	0.325	0.287		0.411	0.316	0.178
H3255	0.314	0.32	0.329	0.282	0.934	0.816	0.829	0.688	0.317	0.226	0.219	0.0844	0.443	0.491	0.553	0.366	0.605	0.549	0.559	0.543
HARA	0.236	0.31	0.246	0.265	1.2	1.2	1.13	1.17	0.717	0.613	0.691	0.732	0.401	0.432	0.358	0.26	0.281	0.243	0.268	0.215
HCC-15	0.754	0.763	0.567	0.567	1.16	1	1.27	0.77	0.971	0.8	0.934	0.654	0.778	0.764	0.806	0.54	0.19	0.218	0.223	0.0856
HCC-44	1	1.05	0.92	0.937	1	0.864	0.948	0.893	1.14	1.03	1.05	0.987	0.675	0.616	0.428	0.594	0.648	0.622	0.626	0.686
HCC-78	0.481	0.496	0.552	0.49	0.544	0.563	0.489	0.396	0.809	0.338	0.878	0.695	0.206	0.178	0.21	0.195	0.939	0.912	0.901	0.899
HCC-366	0.454	0.362	0.41	0.331	1.22	0.942	1.15	1	1.17	1.05	1.02	1	0.133	0.154	0.148	0.189	0.201	0.175	0.202	0.17
